Test results reported in US5866611A, “Therapeutic amines” (Zeneca Limited, priority 1993, dated 1999).
Structures can show the parent of a compound that is named as a salt.

Experiments:
[1] = test system: Squalene synthase; experiment: Inhibition of Squalene synthase; assay type: biochemical; details: rat liver microsomal protein, 15 min, 37° C.
Protocol: (a) Inhibition of Squalene synthase
In this test, the ability of a compound to prevent the formation of squalene from a radioactive substrate (tritiated farnesyl pyrophosphate) is assessed.
The test compound is incubated at a concentration of 25 micromolar in 200 μl of a buffered solution containing potassium phosphate (50 mM), MgCl2 (4.95 mM), KF (9.9 mM), NADPH (0.9 mM) and rat liver microsomal protein (20 μg). Rat liver microsomes are prepared by the method described in published European Patent Application No. 324,421 and stored in liquid nitrogen prior to assay. Assay vials are kept at 37° C. throughout the incubation.
The reaction is started with the addition of the substrate (1-[^3 H]-farnesyl pyrophosphate), final concentration […], and stopped after 15 minutes reaction time with the addition of 50 μl of 4% KOH. The reaction products are separated from unreacted substrate after application to a C-18 octadecyl 1ccBond column (Analytichem Int product No. 617101). An aqueous fraction is eluted with 250 μl of 0.1M KOH. Squalene is then eluted with 1.0 ml 10% ethylacetate in hexane and radioactivity determined. The difference in radioactivity in the presence and absence of the test compound is used to determine the level of inhibition. […] The IC50 can then be determined from a plot of percentage inhibition against concentration of test compound.

[2] = test system: de novo hepatic cholesterol synthesis; experiment: Acute rat cholesterol synthesis assay; details: acute in vivo, female rats, 14C-acetate ip, plasma cholesterol specific radioactivity, route for this compound not given
Protocol: (b) Acute rat cholesterol synthesis assay.
This is an acute in vivo test in the rat to measure de novo hepatic cholesterol synthesis from exogenously administered ^14 C-acetate.
Female rats (35-55 g) are housed in reverse lighting conditions (red light from 0200 h-1400 h) for a period of about 2 weeks prior to test. Animals are allowed free access to chow and drinking water throughout this period. At test, animals should weigh 125-150 g.
Test compounds may be administered by oral gavage, dissolved or suspended in 0.5% polysorbate, or by ip or iv dosing. Control animals receive vehicle alone. After 1 hour the rats are injected ip with 25 μCi [2-^14 C]-acetate (NEN DUPONT. specific activity, 45-60mCi/mmol NEC-085H, or AMERSHAN specific activity, 50-60 mCi/mmol CFA 14) in a volume of 0.25 ml saline (100 μCi/ml). After a further hour, rats are terminally anaesthetised with halothane and a blood sample obtained from the abdominal vena cava.
1ml of plasma is lyophilised and then saponified in 2ml ethanolic KOH (1 part 33% KOH, 9 parts ethanol) at […] for 2 hours. After addition of an equal quantity of water, non-saponifiable lipids are extracted with two 5ml volumes of hexane. The hexane extracts are evaporated to dryness and the residues dissolved in ethanol to determine cholesterol specific radioactivity. ED50 values can be determined in the standard way.

Structure (SMILES)	inhibition of squalene synthase ([1]; at a concentration of 25 μM)	ED50 [2] [mg/kg]	inhibition of squalene synthase ([1]; at 2.5 μM)
CCCCOc1ccc(OCCCNC(C)C)c(CCC)c1 [Example 2, N-isopropyl-3-(4-butoxy-2-propylphenoxy)propylamine]	about 74%	–	–
CCCc1cc(NC(C)=O)ccc1OCCCNC(C)C [Example 95, 3-n-propyl-4-(3-[N-isopropylamino]propoxy)-acetanilide hydrochloride]	–	27	about 86%
